This is an account of results in patent US4595678A, “N-substituted pseudo-aminosugars and pharmaceutical compositions containing same” (Takeda Chemical Industries, Ltd., priority 1982, dated 1986).

The test system of the first assay is α-glucoside hydrolase (α-glucosidase). Put plainly: α-glucoside hydrolase / α-glucosidase inhibitory activity, in words. To be noted: found by the inventors. Type of assay: biochemical.
`N[C@H]1C[C@H](CO)[C@@H](O)[C@H](O)[C@H]1O` [validamine]: the “α-glucoside hydrolase suppressing / α-glucosidase inhibitory activity” value is given as “possesses a highly valuable action of suppressing the function of α-glucoside hydrolase”.

Another assay shares this test system.
Experiment: not given
To be noted: earlier reports; cited from earlier work.
`C[C@H]1O[C@H](O[C@@H]2[C@H](O)[C@H](O)[C@@H](O[C@@H]3[C@H](O)[C@@H](O)[C@@H](O[C@@H]4[C@H](O)[C@H](O)[C@@H](O[C@H]5O[C@@H](CO)[C@H](O)[C@H](O)[C@H]5O)O[C@@H]4CO)O[C@@H]3CO)O[C@H]2CO)[C@H](O)[C@@H](O)[C@@H]1N[C@H]1C=C(CO)[C@@H](O[C@H]2O[C@H](CO)[C@H](O[C@H]3O[C@H](C)[C@@H](N[C@H]4C=C(CO)[C@@H](O)[C@H](O)[C@H]4O)[C@H](O)[C@H]3O)[C@H](O)[C@H]2O)[C@H](O)[C@H]1O` (stereo in doubt) [Trestatin A]: the “α-glucoside hydrolase suppressing / α-glucosidase inhibitory activity” value was “far from being satisfactory”.

As for `C[C@H]1O[C@H](O[C@@H]2[C@H](O)[C@@H](O)[C@@H](O[C@@H]3[C@H](O)[C@@H](O)[C@@H](O[C@@H]4[C@H](O)[C@H](O)[C@@H](O[C@H]5O[C@H](CO)[C@H](O)[C@H](O)[C@H]5O)O[C@@H]4CO)O[C@@H]3CO)O[C@H]2CO)[C@@H](O)[C@@H](O)[C@@H]1N[C@@H]1C=C(CO)[C@@H](O)[C@@H](O)[C@@H]1O` (stereo in doubt) [Trestatin B], the “α-glucoside hydrolase suppressing / α-glucosidase inhibitory activity” value is “far from being satisfactory”.

As to `C[C@H]1O[C@H](O[C@H]2[C@H](O)[C@@H](O)[C@@H](O[C@H]3[C@H](O)[C@@H](O)C(O)O[C@@H]3CO)O[C@@H]2CO)[C@H](O)[C@@H](O)[C@@H]1N[C@H]1C=C(CO)[C@@H](O)[C@H](O)[C@H]1O` (stereo partly shown) [Acarbose], the “α-glucoside hydrolase suppressing / α-glucosidase inhibitory activity” value is “far from being satisfactory”.

Consider `C[C@H]1O[C@H](O[C@H]2[C@H](O)[C@@H](O)[C@@H](O[C@H]3[C@H](O)[C@@H](O)[C@@H](O[C@H]4[C@H](O)[C@@H](O)[C@@H](O[C@H]5O[C@H](CO)[C@@H](O)[C@H](O)[C@H]5O)O[C@@H]4CO)O[C@@H]3CO)O[C@@H]2CO)[C@H](O)[C@@H](O)[C@@H]1N[C@H]1C=C(CO)[C@@H](O[C@H]2O[C@H](CO)[C@@H](O[C@H]3O[C@H](C)[C@@H](NC4C=C(CO)[C@@H](O[C@H]5O[C@H](CO)[C@@H](O[C@H]6O[C@H](C)[C@@H](NC7C=C(CO)[C@@H](O)[C@H](O)[C@H]7O)[C@H](O)[C@H]6O)[C@H](O)[C@H]5O)[C@H](O)[C@H]4O)[C@H](O)[C@H]3O)[C@H](O)[C@H]2O)[C@H](O)[C@H]1O` (stereo partly shown) [Trestatin C], for which the “α-glucoside hydrolase suppressing / α-glucosidase inhibitory activity” value was “far from being satisfactory”.

Turning to `N[C@H]1C=C(CO)[C@@H](O)[C@H](O)[C@H]1O` [valienamine], the “α-glucoside hydrolase suppressing / α-glucosidase inhibitory activity” value is listed as “possesses an action of suppressing the function of α-glucoside hydrolase”.

For `N[C@H]1C[C@](O)(CO)[C@@H](O)[C@H](O)[C@H]1O` [valiolamine, 1L(1S)-(1(OH),2,4,5/1,3)-5-amino-1-hydroxymethyl-1,2,3,4-cyclohexanetetraol], the “α-glucoside hydrolase suppressing / α-glucosidase inhibitory activity” value is on record as “possesses α-glucosidase inhibitory activity”.
